Reference: patent US10736891B2, “Composition and method for treating chagas disease” (priority 2016, dated 2020)

What was measured:
[1] = Blood chemistries and liver biopsies under amiodarone/itraconazole, monkeys
[2] = Blood chemistries and liver biopsies under amiodarone/itraconazole, dogs
[3] = in vivo
Method: Accordingly, prior to additional testing, a dosage of Itraconazole and Amiodarone was prepared in accordance with the above example, but with nanomilling of the Itraconazole before formulating into pharmaceutical compositions and administration to patients. In this example, a suspension of itraconazole was prepared and then subject to milling using a media mill such as disclosed in Kumar et al., J. Pharm. Sci. 104:3018-3028 (2015), wherein Itraconazole (1%, w/v) was suspended in a desired concentration of an aqueous stabilizer solution, and the prepared suspension was stirred for 30 minutes or more for complete wetting of the drug by the stabilizer solution. The suspension (e.g., 150 mL) was then wet milled or wet grinded using a conventional wet milling or grinding device, namely one manufactured by Netzsch of Exton, Pa. Using this equipment, the mill is operated at a suitable speed, e.g., 2500 rpm in a continuous mode for a time suitable to reduce particle size to a range of 1 and 400 nm, e.g., 75 minutes. The temperature of the sample was maintained at below 25° C. during the process, and two cooling bath recirculators were used, including one attached to the milling device and the other attached to suspension recirculation chambers. […]

[4] = in vivo; conditions: human
[5] = cited from earlier work
[6] = increase from 5 mg/kg to 10 mg/kg once daily; cited from earlier work

| arrythmias [1] | hepatic effects (multiple blood chemistries) [1] | arrythmias [2] | hepatic effects (multiple blood chemistries) [2] | increase of bioavailability of itraconazole [3] | Cmax ([4]; 5 mg/kg) | increase in plasma Itraconazole level compared with the Cmax of a previous study (Paniz-Mondolfi et al. 2009) ([4]; 10 mg/kg) | Cmax ([4]; po, 10 mg/kg) | Structure (SMILES) | Itraconazole plasma level when given with food compared with without food [5] | Itraconazole Cmax increase [6] |
| --- | --- | --- | --- | --- | --- | --- | --- | --- | --- | --- |
| 0 | 0 | 0 | 0 | – | – | – | – | CCCCc1oc2ccccc2c1C(=O)c1cc(I)c(OCCN(CC)CC)c(I)c1 [Amiodarone] | – | – |
| – | – | – | – | 2000% | 3.55 µg/mL | 5-6 fold | 13.5 µg/mL | CCC(C)n1ncn(-c2ccc(N3CCN(c4ccc(OCC5COC(Cn6cncn6)(c6ccc(Cl)cc6Cl)O5)cc4)CC3)cc2)c1=O (stereo not shown) [Itraconazole] | higher | 5-6 fold |
